According to patent US9567326B2, “Pyrimidine compounds for the treatment of cancer” (THE UNIVERSITY OF NORTH CAROLINA AT CHAPEL HILL, priority 2012, dated 2017):

Biological target: T1, Mer (Homo sapiens, UniProt Q12866)
T1 sequence (Q12866 21-999): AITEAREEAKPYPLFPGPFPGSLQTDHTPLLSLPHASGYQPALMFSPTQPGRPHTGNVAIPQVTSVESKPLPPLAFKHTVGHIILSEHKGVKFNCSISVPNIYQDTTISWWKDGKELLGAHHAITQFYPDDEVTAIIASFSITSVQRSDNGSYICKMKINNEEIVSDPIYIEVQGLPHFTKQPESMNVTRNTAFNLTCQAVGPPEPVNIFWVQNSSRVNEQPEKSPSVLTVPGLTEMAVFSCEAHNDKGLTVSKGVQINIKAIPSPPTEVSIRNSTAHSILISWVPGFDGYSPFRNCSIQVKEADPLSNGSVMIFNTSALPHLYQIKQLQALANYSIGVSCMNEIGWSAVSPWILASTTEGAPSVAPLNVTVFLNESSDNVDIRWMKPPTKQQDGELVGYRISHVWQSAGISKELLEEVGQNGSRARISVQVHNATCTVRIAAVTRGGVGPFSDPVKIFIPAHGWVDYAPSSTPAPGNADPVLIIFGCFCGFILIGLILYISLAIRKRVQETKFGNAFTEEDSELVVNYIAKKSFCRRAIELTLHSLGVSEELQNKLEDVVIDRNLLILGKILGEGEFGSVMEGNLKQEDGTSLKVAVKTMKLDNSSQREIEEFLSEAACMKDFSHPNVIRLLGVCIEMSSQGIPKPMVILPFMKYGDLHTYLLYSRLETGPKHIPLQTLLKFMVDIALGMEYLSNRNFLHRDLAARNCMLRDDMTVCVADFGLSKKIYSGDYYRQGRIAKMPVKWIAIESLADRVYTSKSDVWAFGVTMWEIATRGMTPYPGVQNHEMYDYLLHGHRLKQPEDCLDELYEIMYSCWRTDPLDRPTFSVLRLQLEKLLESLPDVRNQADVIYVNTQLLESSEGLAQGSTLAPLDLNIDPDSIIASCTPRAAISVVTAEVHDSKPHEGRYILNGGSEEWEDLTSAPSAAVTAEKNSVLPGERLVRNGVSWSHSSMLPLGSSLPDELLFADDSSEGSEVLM
Experiment: Mer IC50
Type: biochemical

Row | IC50 (Table 3 (General Procedure C compounds)) [µM] | IC50 (Table 7 (General Procedure G compounds)) [µM] | SMILES
1 | < 0.01 |  | CCCCNc1ncc(-c2ccc(C(=O)NC3CCN(C(=O)OC(C)(C)C)CC3)cn2)c(NC2CCC(O)CC2)n1 (centres unmarked) [UNC1898A]
2 |  | < 0.01 | CCCCNc1ncc(-c2cncc(N)n2)c(N[C@H]2CC[C@H](O)CC2)n1 [UNC3118A]
